Source: patent publication EP4745134A1 (Jiangsu Yahong Meditech Co., Ltd., priority 2023, dated 2025)
Like-named read-outs stand apart in the source and are kept apart here.

Key:
HCT116 MTAP KO cells = experiment: Inhibitory activity against cell proliferation (CellTiter Glo, 6 days), HCT116 MTAP KO; format: cell-based; details: for IC50: HCT116 MTAP KO cells, 6 days, CellTiter Glo, read-out: HCT116 MTAP KO IC50; for Selectivity HCT 116-WT/ HCT116 MTAP KO: ratio of IC50 HCT116-WT / HCT116 MTAP KO
Procedure: (§1) HCT116-WT (ATCC, CCL-247) and HCT116 MTAP KO (Nanjing Cobioer, CBP75002) cells were seeded into white low-transparency sterile 96-well cell culture plates at a density of 250 cells per well respectively, and the culture medium was McCoy's 5A Medium+10% FBS. The plates were placed under the condition of 37°C and 5% CO2 to be cultured overnight. The cells were treated with 4-fold serially diluted compounds of 8 concentration points starting at an initial concentration of 10000 nM, and the last two columns were used as control wells to which only DMSO was added. The drug-treated cells were further cultured for 6 days. On day 7, CellTiter Glo® reagent was added at 50 uL per well, and after reaction under shaking for 10 minutes at room temperature, the chemiluminescence signals were detected for the well plates through the chemiluminescence detection method using a BIOTEK H1 multifunctional microplate-reader. The IC50 values for inhibition of the compounds on cell viability were calculated in X1fit 5.0 software. Table 2. IC50 values for inhibition of the compounds on HCT116 MTAP KO/WT cell growth

HCT116-WT cells = experiment: Inhibitory activity against cell proliferation (CellTiter Glo, 6 days), HCT116-WT; format: cell-based; details: 144 h, HCT116-WT cells, 6 days, CellTiter Glo; read-out: HCT116-WT IC50
Procedure: as §1

PRMT5-MTA = PRMT5-MTA (Homo sapiens, UniProt O14744); experiment: Enzymatic inhibitory activity against PRMT5-MTA (AlphaScreen); format: biochemical; details: read-out: IC50
Procedure, shortened: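 PRMT5/[…] (1 nM) was preincubated for 30 min at room temperature with 1 µM […] and 2.5 µM SAM, then exposed to compound (10-point, 3-fold from 1000 nM) for 15 min at 23 °C. Histone H4 substrate (5 nM) was added and reacted for 45 min at 23 °C. Symmetric dimethyl-R3 H4 was detected by AlphaScreen and IC50 calculated.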

Sequence of PRMT5-MTA (O14744 whole entry): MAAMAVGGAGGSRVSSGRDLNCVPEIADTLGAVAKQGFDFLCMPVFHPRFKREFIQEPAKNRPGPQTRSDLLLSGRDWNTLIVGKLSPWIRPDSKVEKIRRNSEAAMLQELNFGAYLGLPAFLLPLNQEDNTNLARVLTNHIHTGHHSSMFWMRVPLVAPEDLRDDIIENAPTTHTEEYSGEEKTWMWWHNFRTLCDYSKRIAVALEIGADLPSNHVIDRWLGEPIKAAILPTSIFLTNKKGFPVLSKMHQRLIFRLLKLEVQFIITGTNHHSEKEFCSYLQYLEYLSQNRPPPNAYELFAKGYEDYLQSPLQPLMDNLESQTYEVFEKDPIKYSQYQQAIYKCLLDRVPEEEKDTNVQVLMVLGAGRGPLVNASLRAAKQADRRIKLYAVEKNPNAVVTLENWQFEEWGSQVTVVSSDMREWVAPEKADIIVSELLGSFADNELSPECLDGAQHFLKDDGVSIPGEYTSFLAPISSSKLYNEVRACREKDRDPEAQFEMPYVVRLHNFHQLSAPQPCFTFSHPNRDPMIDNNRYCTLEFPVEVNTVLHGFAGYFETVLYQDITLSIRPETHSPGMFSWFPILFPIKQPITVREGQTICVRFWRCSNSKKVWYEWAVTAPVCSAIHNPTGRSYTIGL
Sequence of PRMT5-MTA (Q9BQA1 whole entry partner): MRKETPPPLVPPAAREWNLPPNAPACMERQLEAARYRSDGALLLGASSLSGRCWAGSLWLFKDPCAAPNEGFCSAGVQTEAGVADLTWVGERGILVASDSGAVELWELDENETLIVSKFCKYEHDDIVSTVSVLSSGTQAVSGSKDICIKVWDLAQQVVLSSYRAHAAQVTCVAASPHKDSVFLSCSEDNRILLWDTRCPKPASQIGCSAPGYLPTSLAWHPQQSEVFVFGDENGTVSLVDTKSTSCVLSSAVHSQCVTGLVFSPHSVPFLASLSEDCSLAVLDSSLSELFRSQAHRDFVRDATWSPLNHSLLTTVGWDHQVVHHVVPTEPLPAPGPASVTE

Row | Compound | IC50 (HCT116 MTAP KO cells; Homo sapiens, HCT-116, 144 h) | Selectivity HCT 116-WT/ HCT116 MTAP KO (HCT116 MTAP KO cells) | IC50 (HCT116-WT cells) | IC50 (PRMT5-MTA) | IC50 (HCT116 MTAP KO cells)
1 | CC1CN(C(=O)c2cc3c(cc2F)nc(N)c2cnn(C)c23)N(c2ncccc2F)C1 (single isomer, unassigned) [Example 467] | 94 nM | 32.33 | 3040 nM |  | 
2 | Cc1cc2cc(C(=O)N(Cc3ccc(-c4ccc(N(C)C5CCC5)nc4)cn3)N(C)c3ncccn3)ccc2nc1N [Compound 261, 2-amino-N-((6'-(cyclobutyl(methyl)amino)-[3,3'-bipyridin]-6-yl)methyl)-N',3-dim ethyl-N'-(pyrimidin-2-yl)quinoline-6-carb ohydrazide] | 40 nM | 17.10 | 684 nM |  | 
3 | Cc1cc2cc(C(=O)N(Cc3ccc(C(F)(F)F)cn3)n3ccc4ccccc43)ccc2nc1N [Example 28, 2-amino-N-(1H-indol-1-yl)-3-methyl-N-((5-(trifluoromethyl)pyridin-2-yl)methyl)quinoline-6-carboxamide] | 139 nM | 18.22 | 2530 nM |  | 
4 | CC1OCc2c1c(N)nc1ccc(C(=O)N(Cc3ccc(C(F)(F)F)cn3)N(C)c3ncccn3)cc21 (stereo not shown) [Example 70, 4-amino-N',3-dimethyl-N'-(pyrimidin-2-yl)-N-((5-(trifluoromethyl)pyridin-2-yl)methyl)-1,3-dihydrofuro[3,4-c]quinoline-8-carbohydrazide] | 21 nM | 10.57 | 222 nM |  | 
5 | CN(c1ncccc1F)N(Cc1ccc(C(F)(F)F)cn1)C(=O)c1ccc2nc(N)c3cnn(C)c3c2c1 [Example 74, 4-amino-N'-(3-fluoropyridin-2-yl)-N ',1-dimethyl-N-((5-(trifluoromethyl)pyridin-2-yl)methyl)-1H-pyrazolo[4,3-c]quinoline-8-carbohydrazide] | 4.4 nM | 20.45 | 90 nM |  | 
6 | CN(c1ncccn1)N(Cc1ccc(C(F)(F)F)cn1)C(=O)c1ccc2nc(N)c(Cl)cc2c1 [Example 105, 2-amino-3-chloro-N'-methyl-N'-(pyrimidin-2-yl)-N-((5-(trifluoromethyl)pyridin-2-yl)methyl)quinoline-6-carbohydrazide] | 202 nM | 19.56 | 3950 nM |  | 
7 | Cc1cc2cc(C(=O)N(Cc3ccc(-c4cc[nH]c(=O)c4)cn3)N(C)c3ncccn3)ccc2nc1N [Example 138, 2-amino-N',3-dimethyl-N-((2'-oxo-1',2'-dihydro-[3,4'-bipyridine]-6-yl)methyl)-N'-(pyrimidin-2-yl)quinoline-6-carbohydrazide] | 290 nM | 11.79 | 3420 nM |  | 
8 | Cc1cc2cc(C(=O)N(Cc3ccc(-c4ccc(=O)[nH]c4)cn3)N(C)c3ncccn3)ccc2nc1N [Example 143, 2-amino-N',3-dimethyl-N-((6'-oxo-1',6'-dihydro-[3,3'-bipyridine]-6-yl)methyl)-N'-(pyrimidin-2-yl)quinoline-6-carbohydrazide] | 192 nM | 17.49 | 3360 nM |  | 
9 | Cc1csc(-c2ccc(CN(C(=O)c3ccc4nc(N)c(C)cc4c3)N(C)c3ncccn3)nc2)c1 [Example 146, 2-amino-N',3-dimethyl-N-((5-(4-methylthien-2-yl)pyridin-2-yl)methyl)-N'-(pyrimidin-2-yl)quinoline-6-carbohydrazide] | 75 nM | 15.85 | 1190 nM |  | 
10 | Cc1cc2cc(C(=O)N(Cc3ccc(-c4cnc5nn(C)cc5c4)cn3)N(C)c3ncccn3)ccc2nc1N [Example 150, 2-amino-N',3-dimethyl-N-((5-(2-methyl-2H-pyrazolo[3,4-b]pyridin-5-yl)pyridin-2-yl)methyl)-N'-(pyrimidin-2-yl)quinoline-6-carbohydrazide] | 29 nM | 24.41 | 708 nM |  | 
11 | Cc1cc2cc(C(=O)N(Cc3ccc(-c4cnn(C(F)(F)F)c4)cn3)N(C)c3ncccc3F)ccc2nc1N [Example 170, 2-amino-N'-(3-fluoropyridin-2-yl)-N ',3-dimethyl-N-((5-(1-(trifluoromethyl)-1 H-pyrazol-4-yl)pyridin-2-yl)methyl)quin oline-6-carbohydrazide] | 35 nM | 18.29 | 640 nM |  | 
12 | Cc1cc2cc(C(=O)N(Cc3ccc(-c4cnoc4)cn3)N(C)c3ncccn3)ccc2nc1N [Example 182, 2-amino-N-((5-(isoxazol-4-yl)pyridin-2-yl)methyl)-N',3-dimethyl-N'-(pyrimidin-2-yl)quinoline-6-carbohydrazide] | 131 nM | 25.89 | 3390 nM |  | 
13 | Cc1cc2cc(C(=O)N(Cc3ccc(-c4cnc5c(cnn5C)c4)cn3)N(C)c3ncccn3)ccc2nc1N [Example 190, 2-amino-N',3-dimethyl-N-((5-(1-methyl-1H-pyrazolo[3,4-b]pyridin-5-yl)pyridin-2-yl)methyl)-N'-(pyrimidin-2-yl)quinoline-6-carbohydrazide] | 32 nM | 26.09 | 835 nM |  | 
14 | Cc1cc2nc(N)c3cnn(C)c3c2cc1C(=O)N1CCCN1c1ccc(C(F)(F)F)nc1 [Example 329, (4-amino-1,7-dimethyl-1H-pyrazolo[4,3-c]quinolin-8-yl)(2-(6-(trifluoromethyl)pyridin-3-yl)pyrazolidin-1-yl)methanone] | 831 nM |  |  | 3.4 nM | 
15 | Cc1cc2nc(N)c3cnn(C)c3c2cc1C(=O)N1CCCN1c1ncccn1 [Example 332, (4-amino-1,7-dimethyl-1H-pyrazolo[4,3-c]quinolin-8-yl)(2-(pyrimidin-2-yl)pyrazolidin-1-yl)methanone] | 405 nM |  |  | 6 nM | 
16 | Nc1nc2ccc(C(=O)N3CCCN3c3ccc(C(F)(F)F)cn3)cc2c2c1COC2 [Example 341, (4-amino-1,3-dihydrofuro[3,4-c]quinolin-8-yl)(2-(5-(trifluoromethyl)pyridin-2-yl)pyrazolidin-1-yl)methanone] | > 10000 nM |  |  | 4.7 nM | 
17 | Cc1cc2nc(N)c3cnn(C)c3c2cc1C(=O)N1CCCN1c1ccc(F)cn1 [Example 344, (4-amino-1,7-dimethyl-1H-pyrazolo[4,3-c]quinolin-8-yl)(2-(5-fluoropyridin-2-yl)pyrazolidin-1-yl)methanone] | 458 nM |  |  | 4.7 nM | 
18 | Cc1cc2nc(N)c3cnn(C)c3c2cc1C(=O)N1CCCN1c1ccccn1 [Example 349, (4-amino-1,7-dimethyl-1H-pyrazolo[4,3-c]quinolin-8-yl)(2-(pyridin-2-yl)pyrazolidin-1-yl)methanone] | 458 nM |  |  | 6.1 nM | 
19 | Cc1cc2nc(N)c3cnn(C)c3c2cc1C(=O)N1C(C)CCN1c1ncccc1F (stereo not shown) [Example 375, (4-amino-1,7-dimethyl-1H-pyrazolo[4,3-c]quinolin-8-yl)(2-(3-fluoropyridin-2-yl)-5-methylpyrazolidin-1-yl)methanone] |  |  |  | 2.5 nM | 280 nM
20 | CC1CN(C(=O)c2cc3c4c(c(N)nc3cn2)COC4)N(c2ncccc2F)C1 (stereo not shown) [Example 511, (4-amino-1,3-dihydrofuro[3,4-c][1,7]naphthyridin-8-yl)(2-(3-fluoropyridin-2-yl)-4-methylpyrazolidin-1-yl)methanone] |  |  |  | 6.1 nM | 
